# Source: patent publication US8545876B1, “Modified drugs for use in liposomal nanoparticles” (The University of British Columbia, priority 2008, dated 2013)
# Read-outs that look alike come from different tables or passages of the source.
# How the values were obtained:
# [1] = system: ovarian cancer cell line ES-2; assay: In vitro cytotoxicity, Alamar Blue assay; assay type: cell-based; settings: Homo sapiens; ES-2, 72-h drug exposure
# Protocol: (§1) Anticancer activity was evaluated against a panel of 3 human cancer cell lines, including the ovarian cancer cell line ES-2, the prostate cancer cell line PC3 and the breast cancer cell line MDA435/LCC6 (BC Cancer Research Centre, Vancouver, BC) (Fields and Lancaster, Am. Biotechnol. Lab., 11:48-50 (1993); Nakayama et al., J. Immunol. Methods, 204:205-208 (1997)). Cytotoxicity was determined using the Alamar Blue assay after a 72-h drug exposure period. […] The plates were returned to the incubator for 4 h; sample fluorescence was determined at λex=530 nm and λem=590 nm. Viability was calculated according to: Cell viability (%)=(Fplus drug−Fbackground)/(Fminus drug−Fbackground)*100, where Fplus drug is the fluorescence reading in the presence of drug, Fminus drug the cell control in the absence of drug and Fbackground the background fluorescence (media alone).
# [2] = system: breast cancer cell line MDA435/LCC6; assay: In vitro cytotoxicity, Alamar Blue assay; assay type: cell-based; settings: Homo sapiens; MDA-MB-435/LCC6, 72-h drug exposure
# Protocol: as §1
# [3] = system: prostate cancer cell line PC3; assay: In vitro cytotoxicity, Alamar Blue assay; assay type: cell-based; settings: Homo sapiens; PC-3, 72-h drug exposure
# Protocol: as §1
# A431 tumors = assay: In vivo kinetics and anticancer activity of vincristine formulations; design: species or system SCID mice; settings: 2 mg/kg i.v.
# Protocol: FIG. 9. In vivo kinetics and anticancer activity of free vincristine (VCR) (2 mg/kg) and vincristine (2 mg/kg) encapsulated in 100 nm egg sphingomyelin/cholesterol LN injected i.v. in SCID mice bearing A431 tumors. (8A) Concentration profile of free VCR (□) and LN formulated VCR (●) in blood plasma over time. […] (8B) Release of free VCR (●) from LN formulations (% retention) over time. […] (8C) Tumor concentration ([…]) of VCR over time after administration of free VCR (□) and LN formulated VCR (●). […] (8D) Anticancer activity of free VCR (1) and LN formulated VCR (●) relative to saline control (▪). […] Nano-liposomal formulations increase the amount of drug reaching sites of tumor growth and prolongs the duration of exposure to therapeutically active levels of drug, resulting in increased antitumor activity.
# [4] = mouse, in vivo, iv, 20 mg/kg
# Source text: The pharmacokinetics (PK) of LN-encapsulated docetaxel derivatives were compared to the PK of Taxotere™, the commercial docetaxel formulation, and derivatives formulated in the same manner as Taxotere™. Taxotere™ and similarly formulated derivatives were formulated as described in the prescribing information for Taxotere™ (Sanofi-Aventis, U.S.) using ethanol/polysorbate 80/physiological saline solution to dissolve the drug. The docetaxel derivative was encapsulated in DSPC/chol, DPPC/Chol and DMPC/Chol LN (55:45 mol %) at a drug-to-lipid ratio of 0.2 wt/wt using the ammonium sulfate loading technique. The lipid components contained trace amounts (0.15 μCi/mg lipid) of the lipid marker [^3H]CHE, allowing monitoring of the elimination of both the prodrug and the LN carrier from circulation.
# The PK and in vivo release studies were based on 4 time points (1, 4, 8 and 16 hrs) and 4 mice per time point. […] The methanolic solutions were centrifuged for 30 min at 15,000×g at 4° C. to pellet the proteins and the supernatant was analyzed for docetaxel and drug derivatives by UHPLC. For LN formulations, 25-50 μl of plasma was added to scintillation fluid (PicoFluor 40, Perkin Elmer) and analyzed for lipid levels ([^3H]-CHE radioactivity) by scintillation counting.
# [5] = Single dose tolerability (MTD) study; assay type: in vivo, SCID/Rag2-M mice; settings: for MTD at 14 days: SCID/Rag2-M, mouse, in vivo, iv, single dose i.v.
# Protocol: Tolerability studies were aimed at establishing the maximum tolerated dose (MTD) and the dose range for use in efficacy studies (efficacy studies were based on a single i.v. injection). […] The studies were based on administration of a single dose and relied on 3 mice/group and a dose escalation strategy based on three dose levels for the derivative and Taxotere and five dose levels for the LN formulations (DSPC/Chol 55:45 mol % at a prodrug/lipid weight ratio of 0.2 mg/mg). All formulations were injected i.v. via the lateral tail vein in a volume of 200 μl/20 g mouse.
# Mice were monitored daily for signs of toxicity over a period of 14 days following drug administration. Tolerability was assessed by changes in body weight as well as behavioral parameters. […] Body weights of individual mice were measured every second day over the course of the study. If weight loss was not a good predictor of tolerability, the dose where no animals needed to be terminated due to toxicity was used.
# [6] = Chemical (hydrolytic) stability in buffered aqueous solutions; assay type: physicochemical; settings: for Prodrug levels (% remaining), pH 4: 24 hour incubation in pH 4 buffer, 37° C.
# Protocol: (§2) The chemical stability of the docetaxel derivatives was determined in aqueous solutions at different pH values and temperatures, and in biological media (mouse plasma). Aliquots of the docetaxel derivatives in acetonitrile were mixed with buffered citrate/HEPES (10 mM/10 mM) solutions at pH 4.0 and 7.5, or in mouse plasma in 1 mL glass HPLC sample vials sealed with Teflon-lined caps (final volume 0.25 ml, final docetaxel derivative concentration 50 µg/ml). Drug stability was determined 1, 4 and 24 hrs after incubation at 37° C. by UPLC-UV. At the indicated time points, a 3-fold excess of methanol/0.1% TFA was added to the sample. Citrate/HEPES buffered samples were analyzed by UHPLC as described above. For plasma samples, proteins precipitated by the addition of methanol/0.1% TFA pelleted by centrifugation at 14,000×g and supernatants were analyzed for the drug derivatives. Heparanized mouse plasma was diluted to 50% with 100 mM sodium-phosphate buffer to keep the pH constant throughout the experiment.
# (§3) To be suitable for formulation in LN, derivatives must be stable at pH 4 (the pH present inside the LN carrier). In addition, prodrug derivatives should readily form the active drug under physiological conditions (e.g., at pH 7.4 and/or in the presence of endogenous enzymes) once released from the LN. […] TD1-3 and TD7 were selected for loading into LN and testing of such LN for drug release in vitro.
# [7] = Stability in mouse plasma; assay type: in vitro ADME; settings: 24 hour incubation in mouse plasma, 37° C.
# Protocol: as §2, §3
# [8] = Chemical (hydrolytic) stability in buffered aqueous solutions; assay type: physicochemical; settings: 24 hour incubation in pH 7.4 buffer, 37° C.
# [9] = In vitro release of docetaxel derivatives from LN in mouse plasma; assay type: in vitro ADME; settings: 37° C., same prodrug-to-lipid ratio
# Protocol: In vitro release of docetaxel derivatives from LN was assessed in mouse plasma. Drug retention was determined by comparison of the initial prodrug-to-lipid ratio with the prodrug-to-lipid ratios found at different time points. […] LN formulations were mixed with mouse plasma at a final lipid concentration of 0.75 mg/ml, followed by incubation at 37° C. At various time points, aliquots were taken and run over Sephadex G-50 spin columns to remove the unentrapped prodrug (Pick, Arch. Biochem. Biophys., 212:186-194 (1981)). The derivative and lipid concentrations in the eluates were determined by UHPLC and liquid scintillation counting, respectively.
# [10] = Kinetic aqueous solubility of docetaxel derivatives in acetate buffer; settings: kinetic from dmso stock
# Protocol: An aliquot was diluted 10-fold with 10 mM acetate buffer (pH 5) and the pH was checked and re-adjusted as necessary to reach pH 5. Alternatively, 10 mg of each compound was weighed into a glass vial, and 2 mL of 10 mM acetate buffer (pH 5) was added to the compound, followed by sonication of the suspension for minutes. The precipitate was then removed using Microcon MY100 filters (MW cut-off 100,000 Da) and the filtrate analyzed by UPLC-UV for drug content. The measured solubilities are kinetic solubilities determined under non-equilibrium conditions.
smiles,measurement,setting,value
"CC(=O)O[C@@]12CO[C@@H]1C[C@H](O)[C@@]1(C)C(=O)[C@H](O)C3=C(C)[C@@H](OC(=O)[C@H](O)[C@@H](NC(=O)OC(C)(C)C)c4ccccc4)C[C@@](O)([C@@H](OC(=O)c4ccccc4)[C@H]21)C3(C)C [Docetaxel, reference compound]",IC50,[1],0.1 nM
same,IC50,[2],< 0.1 nM
same,IC50,[3],1 nM
"CC[C@]1(O)C[C@H]2CN(CCc3c([nH]c4ccccc34)[C@@](C(=O)OC)(c3cc4c(cc3OC)N(C=O)[C@H]3[C@@](O)(C(=O)OC)[C@H](OC(C)=O)[C@]5(CC)C=CCN6CC[C@]43[C@@H]65)C2)C1 [free VCR, vincristine]",concentration profile in blood plasma over time,A431 tumors,rapidly removed from circulation
"CC(=O)O[C@@]12CO[C@@H]1C[C@H](O)[C@@]1(C)C(=O)[C@H](O)C3=C(C)[C@@H](OC(=O)[C@H](OC(=O)CCCN4CCN(C)CC4)[C@@H](NC(=O)OC(C)(C)C)c4ccccc4)C[C@@](O)([C@@H](OC(=O)c4ccccc4)C12)C3(C)C (stereo partly shown) [TD1, 2′-O-(N-methyl-piperazinylbutanoic acid ester) derivative of docetaxel]",time by which plasma concentrations were below detectable levels,[4]; Swiss Webster,≤ 2 h
same,plasma circulation half-lives,[4],minutes
same,pKa,physchem,7.7
same,MTD at 14 days,"[5]; docetaxel equivalents, read-out: MTD",16 mg/kg
same,MTD at 14 days,"[5]; mg/kg prodrug, read-out: MTD expressed as prodrug",20 mg/kg
same,Clin. Observations,"[5]; docetaxel equivalent dose 20 mg/kg, 20 mg/kg",acute toxicity (lethality)
same,Clin. Observations,"[5]; docetaxel equivalent dose 20 mg/kg, listed as Derivative, 20 mg/kg",Acute toxicity
same,DRD (drug-related death),[5]; dose 16 mg/kg,0/3
same,DRD (drug-related death),[5]; dose 20 mg/kg,1/1
same,Clin. Observations,[5]; dose 24 mg/kg,Acute toxicity
same,DRD (drug-related death),[5]; dose 24 mg/kg,3/3
same,"Prodrug levels (% remaining), pH 4",[6],94%
same,half-life at 50 g/ml,"[6]; citrate/HEPES (10 mM/10 mM) buffered aqueous solution, pH 4, read-out: hydrolysis half-life (converted)",~49 days
same,"Prodrug levels (% remaining), Plasma",[7],12%
same,IC50,[1],0.1 nM
same,IC50,[2],< 0.1 nM
same,IC50,[3],0.5 nM
same,"Prodrug levels (% remaining), pH 7.4",[8],23%
"CC(=O)O[C@@]12CO[C@@H]1C[C@H](O)[C@@]1(C)C(=O)[C@H](O)C3=C(C)[C@@H](OC(=O)[C@H](OC(=O)CCCCN4CCN(C)CC4)[C@@H](NC(=O)OC(C)(C)C)c4ccccc4)C[C@@](O)([C@@H](OC(=O)c4ccccc4)C12)C3(C)C (stereo partly shown) [TD3, N-methyl-piperazinyl pentanoic acid ester]",in vitro retention / release rate in DSPC/chol LN relative to TD1,[9],released at a slightly faster rate
same,"Prodrug levels (% remaining), pH 4",[6],99%
same,"Prodrug levels (% remaining), Plasma",[7],29%
same,solubility,"[10]; 10 mM acetate buffer with 10% (v/v) ethanol, pH 5, aqueous with cosolvent or surfactant or cyclodextrin",4100 µg/mL
same,solubility,"[10]; 10 mM acetate buffer, pH 5, aqueous buffer",2500 µg/mL
same,"Prodrug levels (% remaining), pH 7.4",[8],69%
